The values that follow come from patent US20220306695A1, “COMPSTATIN ANALOGUES AND THEIR MEDICAL USES” (priority 2019, published 2022).

Like-named read-outs stand apart in the source and are kept apart here. Starred links: 1 amine or outer side, 2 acyl side, 3 side chain; linkers in the order of their positions; H or OH if unused. Positions of bridges follow the written chain, without caps; N, C: chain ends. Non-standard residues stand in square brackets, D forms with d. Residues, ends and D or L forms follow the SMILES beside them. Groups on a side chain read outwards from the residue. *: point of attachment. Trp(1-Me) = Cn1cc(C[C@H](N)C(=O)O)c2ccccc21; Abu(4-yl) = O=C([C@H](CC[*:3])N[*:1])[*:2]; C18 diacid = O=C(O)CCCCCCCCCCCCCCCCC(=O)*; γGlu = O=C(O)[C@H](CCC(=O)[*:2])N[*:1]; AEEA = NCCOCCOCC(=O)O; Sar = CNCC(=O)O

Data set [1] concerns classical complement pathway. The experiment in a line: In vitro haemolysis assay (inhibition of classical complement pathway). Format: cell-based, human. As to conditions: Table 3; human serum, sensitized sheep red blood cells; read-out: IC50[nM], in vitro analysis of inhibition of hemolysis. The gist of the method:
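Serially diluted compound (9 points) was preincubated 15 min at room temperature with diluted human serum, titrated per batch to give 70-90% maximal haemolysis, in Tris/casein buffer pH 7.4 with Mg2+/Ca2+. Antibody-sensitized sheep erythrocytes were then added for 30 min at 37° C, and the reaction was stopped with EDTA. Haemolysis was read at A405, with IC50 from 4PL fit.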

In data set [2] the target is T1, Human C3 (Homo sapiens, UniProt P01024).
T1 construct: purchased Complement tech A1 13c (so in the source)
Briefly: Affinity measurement by surface plasmon resonance (SPR) with immobilized C3. The format is binding. As to conditions: Table 7; immobilized C3, 25° C., pH 7.4. For orientation: SPR reads the build-up and loss of mass on a sensor chip optically.

The nature of a further data set: in vivo. As to conditions: male, cynomolgus monkey, sc, 1840 nmol/kg; for half-life: t½. Details: species or system Cynomolgus monkeys (Macaca fascicularis). The gist of the method: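 Healthy male cynomolgus monkeys dosed once subcutaneously at 1840 nmol/kg in 20 mM phosphate pH 7.5 with mannitol. Serum sampled pre-dose to 120 h and total drug measured by SPE and LC-MS/MS. Terminal half-life calculated non-compartmentally as ln(2)/λz from the terminal log-linear phase.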

Data set [3] is classed as physicochemical. As to conditions: 50 mg/mL peptide; for Covalent oligomer content after 14 days 40° C. (%), F1 / Purity after 14 days 40° C. (%), F1: F1: 20 mM phosphate pH 5.5; for Covalent oligomer content after 14 days 40° C. (%), F1 / Covalent oligomer content after 14 days 40° C. (%), F2: denaturing SEC; for Purity after 14 days 40° C. (%), F1 / Purity after 14 days 40° C. (%), F2 / Purity after 14 days 40° C. (%), F3: normalized purity (HPLC). The gist of the method:
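Compstatin analogues with cystathionine or disulfide bridge held at 50 mg/mL in 20 mM phosphate pH 5.5, 6.5 or 7.5 and stored 14 days at 40 °C. At 0, 7 and 14 days, samples diluted to 2 mg/mL; purity by reverse-phase HPLC (220 nm) and covalent oligomer content by denaturing SEC (215 nm), from integrated chromatograms.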

The nature of data set [4]: Solubility test at 10 mg/mL (visual inspection and light scattering). The format is physicochemical.
Data set [5] has as its target Human C3 (human, UniProt P01024 23-1663). Briefly: cell-based or functional assay.

Chain of Human C3 (human, UniProt P01024 23-1663) (P01024 23-1663 limits assumed): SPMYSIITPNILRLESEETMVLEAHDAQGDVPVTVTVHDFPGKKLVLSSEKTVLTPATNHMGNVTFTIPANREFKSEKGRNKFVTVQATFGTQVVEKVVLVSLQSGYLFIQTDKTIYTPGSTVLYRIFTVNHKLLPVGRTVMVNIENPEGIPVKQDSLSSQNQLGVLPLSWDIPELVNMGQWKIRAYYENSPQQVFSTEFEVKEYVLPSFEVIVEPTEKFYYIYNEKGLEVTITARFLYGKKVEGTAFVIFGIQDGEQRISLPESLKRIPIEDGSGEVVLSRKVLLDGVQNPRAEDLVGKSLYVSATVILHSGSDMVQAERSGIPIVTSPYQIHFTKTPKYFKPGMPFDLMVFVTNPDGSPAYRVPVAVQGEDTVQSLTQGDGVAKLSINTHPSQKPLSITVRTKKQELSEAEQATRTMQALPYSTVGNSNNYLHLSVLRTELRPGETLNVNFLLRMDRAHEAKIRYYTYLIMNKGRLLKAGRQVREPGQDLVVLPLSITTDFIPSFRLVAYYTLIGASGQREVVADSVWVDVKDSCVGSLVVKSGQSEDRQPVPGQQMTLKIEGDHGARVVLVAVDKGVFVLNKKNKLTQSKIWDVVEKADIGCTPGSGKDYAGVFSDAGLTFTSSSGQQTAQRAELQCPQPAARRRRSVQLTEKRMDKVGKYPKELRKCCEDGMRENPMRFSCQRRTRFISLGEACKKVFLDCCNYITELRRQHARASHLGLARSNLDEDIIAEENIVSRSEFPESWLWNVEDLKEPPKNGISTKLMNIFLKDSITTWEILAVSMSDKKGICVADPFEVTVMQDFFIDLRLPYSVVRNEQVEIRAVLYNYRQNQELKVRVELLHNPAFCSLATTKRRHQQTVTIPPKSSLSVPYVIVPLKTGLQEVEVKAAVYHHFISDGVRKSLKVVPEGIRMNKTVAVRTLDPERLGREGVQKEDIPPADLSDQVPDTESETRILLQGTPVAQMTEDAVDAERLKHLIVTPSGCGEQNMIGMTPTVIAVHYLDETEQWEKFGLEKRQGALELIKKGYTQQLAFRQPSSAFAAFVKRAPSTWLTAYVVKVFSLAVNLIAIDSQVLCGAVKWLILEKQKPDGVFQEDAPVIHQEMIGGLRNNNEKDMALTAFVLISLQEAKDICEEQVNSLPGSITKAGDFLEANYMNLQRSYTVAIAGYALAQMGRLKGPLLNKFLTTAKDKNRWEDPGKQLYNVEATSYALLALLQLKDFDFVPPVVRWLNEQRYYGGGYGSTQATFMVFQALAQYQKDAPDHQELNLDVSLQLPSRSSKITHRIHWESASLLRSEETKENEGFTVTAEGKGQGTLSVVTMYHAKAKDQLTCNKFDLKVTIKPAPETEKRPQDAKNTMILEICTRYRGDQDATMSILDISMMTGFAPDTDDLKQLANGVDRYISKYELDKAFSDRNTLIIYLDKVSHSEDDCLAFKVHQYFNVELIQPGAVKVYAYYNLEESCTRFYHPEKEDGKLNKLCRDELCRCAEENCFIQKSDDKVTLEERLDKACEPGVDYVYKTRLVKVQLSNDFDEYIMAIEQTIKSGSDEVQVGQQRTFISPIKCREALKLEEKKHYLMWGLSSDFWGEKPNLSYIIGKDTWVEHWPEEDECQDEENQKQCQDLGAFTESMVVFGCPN

Regarding `CC[C@H](C)[C@@H]1NC(=O)[C@@H](NC(=O)[C@H](Cc2ccccc2)NC(=O)[C@H](CCC(=O)O)NC(=O)[C@H](CO)NC(C)=O)CSSC[C@@H](C(=O)N(C)CC(=O)N[C@@H](CCC(=O)O)C(=O)NCC(=O)N[C@@H](CCC(=O)O)C(=O)NCCOCCOCC(=O)NCCOCCOCC(=O)N[C@@H](CCCCNC(=O)CC[C@H](NC(=O)CNC(=O)CC[C@H](NC(=O)CCCCCCCCCCCCCCCCC(=O)O)C(=O)O)C(=O)O)C(N)=O)NC(=O)[C@H](CCCNC(=N)N)NC(=O)[C@H](Cc2c[nH]cn2)NC(=O)[C@H](CCC(=O)O)NC(=O)CNC(=O)[C@H](Cc2c[nH]c3ccccc23)NC(=O)[C@H](CC(=O)O)NC(=O)[C@H](CCC(N)=O)NC(=O)[C@H](Cc2cn(C)c3ccccc23)NC1=O` [Compound 123] (Ac-SEFCI[Trp(1-Me)]QDWGEHRC[Sar]EGE[AEEA][AEEA]K([γGlu-Gly-γGlu-C18 diacid])-NH2; disulfide 4-14), the IC50 – broadly, the point on the concentration scale where inhibition reaches its midpoint – in data set [1] was less than 100 nM. Besides, on Human C3 [2], the dissociation constant Kd (commonly the free concentration of one partner at which half of the binding sites on the other are occupied at equilibrium, for simple one-to-one binding) is 11 nM. Moreover, the half-life – broadly, how long it takes for the measured level to halve – in the data set “in vivo” is 105 h. In data set [3], the “Covalent oligomer content after 14 days 40° C. (%), F1” value turned out to be 52% and the “Purity after 14 days 40° C. (%), F1” value is given as 56%. Besides, in data set [3] (F2: 20 mM phosphate pH 6.5), the “Covalent oligomer content after 14 days 40° C. (%), F2” value (shortened to “Covalent oligomer content … (%), F2”) is on record as 48% and the “Purity after 14 days 40° C. (%), F2” value is on record as 54%. In addition, in data set [3] (F3: 20 mM phosphate pH 7.5), the “Covalent oligomer content … (%), F2” value was 45% and the “Purity after 14 days 40° C. (%), F3” value is 54%.

Regarding `CC[C@H](C)[C@@H]1NC(=O)[C@@H](NC(=O)[C@H](Cc2ccc(O)cc2)NC(=O)[C@H](CCC(=O)O)NC(=O)[C@H](CO)NC(C)=O)CSSC[C@@H](C(=O)N(C)CC(=O)N[C@@H](CCC(=O)O)C(=O)NCC(=O)N[C@@H](C)C(=O)N[C@@H](CCCCNC(=O)COCCOCCNC(=O)CC[C@H](NC(=O)COCCOCCNC(=O)CNC(=O)CC[C@H](NC(=O)CCCCCCCCCCCCCCCCC(=O)O)C(=O)O)C(=O)O)C(N)=O)NC(=O)[C@H](CCCNC(=N)N)NC(=O)[C@H](Cc2c[nH]cn2)NC(=O)[C@H](CCC(=O)O)NC(=O)CNC(=O)[C@H](Cc2c[nH]c3ccccc23)NC(=O)[C@H](CC(=O)O)NC(=O)[C@H](CCC(N)=O)NC(=O)[C@H](Cc2cn(C)c3ccccc23)NC1=O` [Compound 118] (Ac-SEYCI[Trp(1-Me)]QDWGEHRC[Sar]EGAK([AEEA-γGlu-AEEA-Gly-γGlu-C18 diacid])-NH2; disulfide 4-14), the IC50 in data set [1] is less than 100 nM. Further, the “Solubility, Condition 1 Acetate pH 4” value in data set [4] (10 mg/mL compound in 100 mM acetate pH 4) is given as “− (denotes lack of solubility at the given condition, as UV absorbance at 340 nm exceeds 0.1 AU and/or it is visibly turbid or contains particles.)”. Moreover, in data set [4] (10 mg/mL compound in 100 mM acetate pH 5), the “Solubility, Condition 2 Acetate pH 5” value is “+ (denotes solubility at the given condition, as determined by UV absorbance being less than 0.1 AU at 340 nm and the sample being clear when manually inspected.)”. In data set [4] (10 mg/mL compound in 100 mM phosphate pH 6), the “Solubility, Condition 3 Phosphate pH 6” value is “+ (denotes solubility at the given condition, as determined by UV absorbance being less than 0.1 AU at 340 nm and the sample being clear when manually inspected.)”. In addition, the “Solubility, Condition 4 Phosphate pH 7” value in data set [4] (10 mg/mL compound in 100 mM phosphate pH 7) was “+ (denotes solubility at the given condition, as determined by UV absorbance being less than 0.1 AU at 340 nm and the sample being clear when manually inspected.)”. Further, the “Solubility, Condition 5 Phosphate pH 7.5” value in data set [4] (10 mg/mL compound in 100 mM phosphate pH 7.5) was “+ (denotes solubility at the given condition, as determined by UV absorbance being less than 0.1 AU at 340 nm and the sample being clear when manually inspected.)”. On Human C3 [2], this molecule showed a Kd of 11 nM. In the data set “in vivo”, the t½ (as a rule, the time needed for the level to fall by half in the phase considered) amounted to 155 h and the half-life is 78.7 h.

`CC[C@H](C)[C@@H]1NC(=O)[C@@H](NC(=O)[C@H](Cc2ccccc2)NC(=O)[C@H](CCC(=O)O)NC(=O)[C@H](CO)NC(C)=O)CSCC[C@@H](C(=O)N[C@H](C(=O)N[C@@H](CCC(=O)O)C(=O)NCC(=O)N[C@@H](CCC(=O)O)C(=O)NCCOCCOCC(=O)N[C@@H](CCC(=O)O)C(=O)N[C@@H](CO)C(=O)N[C@@H](CCCCNC(=O)CC[C@H](NC(=O)CCCCCCCCCCCCCCCCC(=O)O)C(=O)O)C(N)=O)[C@@H](C)O)NC(=O)[C@H](CCCNC(=N)N)NC(=O)[C@H](Cc2c[nH]cn2)NC(=O)[C@H](CCC(=O)O)NC(=O)CNC(=O)[C@H](Cc2c[nH]c3ccccc23)NC(=O)[C@H](CC(=O)O)NC(=O)[C@H](CCC(N)=O)NC(=O)[C@H](Cc2cn(C)c3ccccc23)NC1=O` [Compound 148, Ac-SEFA(1)I[1-Me-Trp]QDWGEHRhC(1)TEGE[Peg3]ES-K([17-carboxy-heptadecanoyl][γGlu])-NH2] (Ac-SEFCI[Trp(1-Me)]QDWGEHR[Abu(4-yl)]TEGE[AEEA]ESK([γGlu-C18 diacid])-NH2; thioether 4-14): the half-maximal inhibitory concentration (IC50) in data set [1] was less than 100 nM. This molecule also came in with a Kd at Human C3 [2] of 3.4 nM. Besides, the half-life in “in vivo” was 129 h. Besides, in data set [3], the “Covalent oligomer content after 14 days 40° C. (%), F1” value was 0.7% and the “Purity after 14 days 40° C. (%), F1” value is 93%. In data set [3] (F2: 20 mM phosphate pH 6.5), the “Covalent oligomer content … (%), F2” value came out at 0.0% and the “Purity after 14 days 40° C. (%), F2” value is recorded as 97%. Moreover, in data set [3] (F3: 20 mM phosphate pH 7.5), the “Covalent oligomer content … (%), F2” value amounted to 0.1% and the “Purity after 14 days 40° C. (%), F3” value was found to be 97%.

B1: Compound E (peptide)
peptide: Ac-ICVWQDWGAHSCT-NH2
modifications: disulfide 2-12
SMILES: CC[C@H](C)[C@H](NC(C)=O)C(=O)N[C@H]1CSSC[C@@H](C(=O)N[C@H](C(N)=O)[C@@H](C)O)NC(=O)[C@H](CO)NC(=O)[C@H](Cc2c[nH]cn2)NC(=O)[C@H](C)NC(=O)CNC(=O)[C@H](Cc2c[nH]c3ccccc23)NC(=O)[C@H](CC(=O)O)NC(=O)[C@H](CCC(N)=O)NC(=O)[C@H](Cc2c[nH]c3ccccc23)NC(=O)[C@H](C(C)C)NC1=O
Regarding B1, in the data set with Human C3 [5], the “CP hemolysis IC50” value was more than 1000 nM.

B2: Compound C (peptide)
peptide: Ac-ESSAICVWQDWGEHRCT-NH2
modifications: disulfide 6-16
SMILES: CC[C@H](C)[C@H](NC(=O)[C@H](C)NC(=O)[C@H](CO)NC(=O)[C@H](CO)NC(=O)[C@H](CCC(=O)O)NC(C)=O)C(=O)N[C@H]1CSSC[C@@H](C(=O)N[C@H](C(N)=O)[C@@H](C)O)NC(=O)[C@H](CCCNC(=N)N)NC(=O)[C@H](Cc2c[nH]cn2)NC(=O)[C@H](CCC(=O)O)NC(=O)CNC(=O)[C@H](Cc2c[nH]c3ccccc23)NC(=O)[C@H](CC(=O)O)NC(=O)[C@H](CCC(N)=O)NC(=O)[C@H](Cc2c[nH]c3ccccc23)NC(=O)[C@H](C(C)C)NC1=O
Consider B2, for which the “CP hemolysis IC50” value with Human C3 [5] was found to be 300 nM.

B3: Compound B (peptide)
peptide: Ac-ICVWQDWGSHRCT-NH2
modifications: disulfide 2-12
SMILES: CC[C@H](C)[C@H](NC(C)=O)C(=O)N[C@H]1CSSC[C@@H](C(=O)N[C@H](C(N)=O)[C@@H](C)O)NC(=O)[C@H](CCCNC(=N)N)NC(=O)[C@H](Cc2c[nH]cn2)NC(=O)[C@H](CO)NC(=O)CNC(=O)[C@H](Cc2c[nH]c3ccccc23)NC(=O)[C@H](CC(=O)O)NC(=O)[C@H](CCC(N)=O)NC(=O)[C@H](Cc2c[nH]c3ccccc23)NC(=O)[C@H](C(C)C)NC1=O
In the case of B3, the “CP hemolysis IC50” value with Human C3 [5] was 360 nM.

B4: Compound J (peptide)
peptide: Ac-ICVWQDWGEHRCTEGE-NH2
modifications: disulfide 2-12
SMILES: CC[C@H](C)[C@H](NC(C)=O)C(=O)N[C@H]1CSSC[C@@H](C(=O)N[C@H](C(=O)N[C@@H](CCC(=O)O)C(=O)NCC(=O)N[C@@H](CCC(=O)O)C(N)=O)[C@@H](C)O)NC(=O)[C@H](CCCNC(=N)N)NC(=O)[C@H](Cc2c[nH]cn2)NC(=O)[C@H](CCC(=O)O)NC(=O)CNC(=O)[C@H](Cc2c[nH]c3ccccc23)NC(=O)[C@H](CC(=O)O)NC(=O)[C@H](CCC(N)=O)NC(=O)[C@H](Cc2c[nH]c3ccccc23)NC(=O)[C@H](C(C)C)NC1=O
On to B4, for which the “CP hemolysis IC50” value with Human C3 [5] turned out to be 240 nM.

B5: Compound F (peptide)
peptide: Ac-ICVWQDWGEHSCT-NH2
modifications: disulfide 2-12
SMILES: CC[C@H](C)[C@H](NC(C)=O)C(=O)N[C@H]1CSSC[C@@H](C(=O)N[C@H](C(N)=O)[C@@H](C)O)NC(=O)[C@H](CO)NC(=O)[C@H](Cc2c[nH]cn2)NC(=O)[C@H](CCC(=O)O)NC(=O)CNC(=O)[C@H](Cc2c[nH]c3ccccc23)NC(=O)[C@H](CC(=O)O)NC(=O)[C@H](CCC(N)=O)NC(=O)[C@H](Cc2c[nH]c3ccccc23)NC(=O)[C@H](C(C)C)NC1=O
Take B5: in the data set with Human C3 [5], the “CP hemolysis IC50” value came out at 540 nM.
